Source: patent publication US20080096850A1 (priority 2001, published 2008)

Tests used:
Assay type in all cases: cell-based, Staphylococcus aureus
S. aureus (MN8) = system: S. aureus (MN8)
[1] = system: TSST-1 production by S. aureus (MN8)
[2] = system: TSST-1 production by S. aureus FRI-1187
[3] = system: TSST-1 production by S. aureus FRI-1169

| Compound | CFU/mL (S. aureus (MN8)) [CFU/mL] | Optical Density 600 nm (S. aureus (MN8)) | ELISA: TSST-1 ng/OD unit [1] [ng/OD unit] | ELISA: TSST-1 ng/OD unit [2] [ng/OD unit] | Reduction of Toxin % [2] [%] | ELISA: TSST-1 ng/OD unit [3] [ng/OD unit] | Reduction of Toxin % [3] [%] |
| --- | --- | --- | --- | --- | --- | --- | --- |
| 4-hydroxydiphenyl methane [4-Hydroxydiphenyl-methane] | 1.1E+08 | 0.581 | 785 | – | – | – | – |
| Oc1c(Cl)cc(Cl)c(Cl)c1Cc1c(O)c(Cl)cc(Cl)c1Cl [Hexachlorophene, hexachlorophene] | – | – | 330 | – | – | – | – |
| Oc1cc(Cl)ccc1Oc1ccc(Cl)cc1Cl [Triclosan, triclosan] | – | – | – | 95 | 86 | 40 | 96 |
